According to patent EP0075436B1, “Substituted 4,5-dihydro-6-(substituted)-phenyl-3(2H)-pyridazinones and 6-(substituted)phenyl-3(2H)-pyridazinones” (WARNER-LAMBERT COMPANY, priority 1981, dated 1983):

How the values were obtained:
conscious rat = assay: Direct monitoring of aortic blood pressure and heart rate from conscious rats; format: in vivo; details: doses 1, 3, 10, and 30 mg/kg
From the text: A method for the direct monitoring of aortic blood pressure and heart rate from conscious rats
The continuous monitoring of pulsatile blood pressure from unrestrained conscious rats surgically equipped with polyethylene cannulas was accomplished by means of a computer assisted data capture scheme (CADCS). The basic elements of the methodology are the cannulation procedure and the CADCS. Method
Cannulation Procedure: Rats were anesthetized with Telazol (1:1 tiletamine HCI and zolazepam HCI; WU PD, Ann Arbor, MI) 20-40 mg/kg IM and the descending aorta exposed via a midline incision. Cannulus fabricated from polyethylene tubing (Clay Adams, Parsippany, NJ) were inserted into the aorta via an undersized puncture hole below the renal arteries. The puncture hole was made by a 23 G disposable needle with a section of the aorta clamped off above and below the puncture site. The cannulas, consisting of a PE100 (0.86 mm ID) body and a PE50 (0.58 mm ID) tip, were attached to a trocar, inserted through the psoas muscle, and passed subcutaneously along the midline of the back and externalized between the ears. The cannulas were anchored to the psoas muscle and between the scapulae (3-0 green braided suture; Deknatel, Queens Village, NY). The midline incision was closed in two steps (muscle first, skin second) using continuous over-and-over sutures (4-0 chronic; Ethicon, Somerville, NJ). Each rat was then given penicillin 30,000 units subcutaneously (Penicillin G Procaine Sterile Suspension; Parke-Davis, Detroit, MI).
The rats were fitted with a harness-spring-swivel assembly designed to protect the cannula and to provide the rat relative freedom of movement. The harnesses were fabricated from nylon hook and loop tape (Velcro, Manchester, NH) cemented to a metal plate to which spring wires (18-8 stainless steel, Paragon Spring; Chicago, IL) were attached to brass swivels (BRS/LVE, Bellville: MD). Each polyethylene cannula was channeled through a spring and connected through a swivel to a pressure transducer (Model P23Gb; Statham Instruments; Hato Rey, Puerto Rico) and an infusion pump (Sage model 234-7; Orion Research, Cambridge, MA) by means of PE100 tubing. While on test, each rat received a continuous slow infusion of heparinized saline solution […] or 40 units of heparin per 24-hour period) to prevent clot formation. Additional "flushes" of the cannula with heparinized saline were carriedd out when the aortic pulse pressure (systolic minus diastolic) was less than 25 mm Hg.
CADCS: The pulsatile blood pressure and heart rate of each of 32 rats was monitored every minute by means of two in-laboratory microcomputers communicating directly with a data concentrator computer. The data were first stored on the data concentrator disk and then transferred to a magnetic tape for analysis and report generation by the main research computer (Varian V-74 or IBM). The overall scheme involved modulating the primary signal from the pressure transducer, generating the primary data set of the one- minute values for systolic, diastolic, and mean blood pressures and heart rate by the in-lab microcomputer and the storage, analysis, and report generation by the main research computer.
The transducers were connected to analog signal conditioning modules. The modules provided a regulated excitation voltage for the transducers, amplification as required to interface the microprocessors and an active low pass filter to compensate for the pressure wave form distortion produced by the flexible, fluid filled, narrow lumened cannula. The distortion was 22-26 Hz and thus provided a reliable estimate of both systolic and diastolic blood pressure.
The microcomputers (one for each of two groups of 16 rats) were connected to the input components through the module interface units, an analog-to-digital converter for the pressure wave form signal and the digital inputs for the dose and event marker switches. […]

[1] = system: pentobarbital-anesthetized dog; assay: Test for in vivo myocardial inotropic activity in anesthetized dog; details: intravenous; for % Change Blood Pressure: aortic blood pressure; for % Change Myocardial Contractility: dP/dt of left ventricular blood pressure
Experimental: Test for in vivo myocardial inotropic activity in anesthetized dog This screen consists of determining the effects of increasing intravenous doses of compound on myocardial contractility (dP/dt mad of left ventricular blood pressure), heart rate and aortic blood pressure of the pentobarbital-anesthetized dog. Adult mongrel dogs of either sex are anesthetized with pentobarbital, 35 mg/kg, IV, and are subsequently maintained under anesthesia with a continuous infusion of pentabarbital, 3.5 mg/kg/hour. The trachea is intubated but the animals are permitted to breathe spontaneously. A cannula is inserted into the femoral vein for administrating test agents. A Millar catheter tip pressure transducer or a fluid filled catheter is inserted into the ascending aorta via the femoral artery for measuring aortic blood pressure. A Millar catheter tip pressure transducer is passed into the left ventricle via the left carotid artery for measuring left ventricular blood pressure. Needle electrodes are.placed subcutaneously for recording a lead II electrocardiogram (ECG). Left ventricular and aortic blood pressures are recorded on a strip chart recorder. Heart rate, using a . biotachometer triggered from the R wave of the ECG, and the first derivative of left ventricular blood pressure (dP/dt), obtained with a differentiator amplifier coupled to the corresponding pressure amplifier, are also recorded. A period of at least 30 minutes is utilized to obtain control data prior to administration of test compound. Depending on solubility, the compounds are dissolved in 0.9% saline solution or in dilute HCI or NaOH (0.1 or 1.0 N) and are diluted to volume with normal saline. Ethanol or dimethylacetamide can be used as solvents if adequate dilutions can be made. Appropriate vehicle controls are administered when needed. Each dose of the test compound is administered in volume of 0.1 ml/kg over a period of one minute.

| Compound | aortic blood pressure (conscious rat) | % Change Heart Rate ([1]; dose 0.01 mg/kg) | % Change Blood Pressure ([1]; dose 0.01 mg/kg) | % Change Myocardial Contractility ([1]; dose 0.01 mg/kg) | % Change Heart Rate ([1]; dose 0.10 mg/kg) | % Change Blood Pressure ([1]; dose 0.10 mg/kg) | % Change Myocardial Contractility ([1]; dose 0.10 mg/kg) | % Change Heart Rate ([1]; dose 0.03 mg/kg) | % Change Blood Pressure ([1]; dose 0.03 mg/kg) | % Change Myocardial Contractility ([1]; dose 0.03 mg/kg) | % Change Heart Rate ([1]; dose 0.31 mg/kg) | % Change Blood Pressure ([1]; dose 0.31 mg/kg) | % Change Myocardial Contractility ([1]; dose 0.31 mg/kg) | other results |
| --- | --- | --- | --- | --- | --- | --- | --- | --- | --- | --- | --- | --- | --- | --- |
| O=c1ccc(-c2ccc(-n3cnc4c3CCCC4)cc2)n[nH]1 [Example 15, 6-[4-(4,5,6,7-Tetrahydro-1H benzimidazol-1-yl)phenyl]-3(2H)-pyridazinone] | significant reduction | – | – | – | – | – | – | – | – | – | – | – | – | – |
| O=c1ccc(-c2cccc(-n3ccnc3)c2)n[nH]1 [Example 14, 6-[3-(1H-Imidazol-1-yl)phenyl]-3(2H)-pyridazinone] | significant reduction | – | – | – | – | – | – | – | – | – | – | – | – | – |
| O=C1CCC(c2ccc(OCCn3ccnc3)cc2)=NN1 [Example 12, 4,5-Dihydro-6-[4-[2-(1H-imidazol-1-yl)ethoxy]phenyl]-3(2H)-pyridazinone] | significant reduction | – | – | – | – | – | – | – | – | – | – | – | – | – |
| O=c1ccc(-c2ccc(OCCn3ccnc3)cc2)n[nH]1 [Example 16, 6-[4-[2-(1H Imidazol-1-yl)ethoxy]phenyl]-3(2H)-pyridazinone] | significant reduction | – | – | – | – | – | – | – | – | – | – | – | – | – |
| O=C1CCC(c2ccc(-n3cnnc3)cc2)=NN1 [Example 10] | significant reduction | – | – | – | – | – | – | – | – | – | – | – | – | – |
| O=C1CCC(c2ccc(-n3cccc3)cc2)=NN1 [Example 11, 4,5-Dihydro-6-[4-(H-pyrrol-1-yl)phenyl]-3(2H)-pyridazinone] | significant reduction | – | – | – | – | – | – | – | – | – | – | – | – | – |
| O=C1CCC(c2cccc(-n3ccnc3)c2)=NN1 [Example 6, 4,5-Dihydro-6-[3-(1-imidazol-1-yl)phenyl]-3(2H)-pyridazinone] | significant reduction | −2.0% | 1.0% | 6% | −1.0% | −1.0% | 36% | – | – | – | – | – | – | % Change Heart Rate ([1]; dose 0.30 mg/kg): 2.0%; % Change Blood Pressure ([1]; dose 0.30 mg/kg): −8.0%; % Change Myocardial Contractility ([1]; dose 0.30 mg/kg): 71%; % Change Heart Rate ([1]; dose 1.0 mg/kg): 11.0%; % Change Blood Pressure ([1]; dose 1.0 mg/kg): −20.0%; % Change Myocardial Contractility ([1]; dose 1.0 mg/kg): 114% |
| O=C1CCC(c2ccc(-n3cnc4c3CCCC4)cc2)=NN1 [Example 8, 4,5-Dihydro-6-[4-(4,5,6,7-tetrahydro-1H-benzimidazol-1-yl)phenyl]-3(2H)-pyridazinone] | significant reduction | −3.0% | −2.5% | 10% | −17.0% | −11.0% | 51% | −15.0% | −7.0% | 21% | −18.0% | −17.0% | 95% | % Change Heart Rate ([1]; dose 1.0 mg/kg): −7.0%; % Change Blood Pressure ([1]; dose 1.0 mg/kg): −27.0%; % Change Myocardial Contractility ([1]; dose 1.0 mg/kg): 127% |
| O=C1CCC(c2ccc(-n3ccnc3)cc2)=NN1 [Example 3a, 4,5-Dihydro-6-[4-(1H imidazol-1-yl)phenyl]-3(2H)-pyridazinone] | – | −4.0% | −2.0% | 9% | −1.0% | −10.5% | 57% | −4.0% | −6.0% | 32% | 2.0% | −21.5% | 87% | – |
| O=c1ccc(-c2ccc(-n3ccnc3)cc2)n[nH]1 [Example 13a, 6-[4-(1H-Imidazol-1-yl)phenyl]-3(2H)-pyridazinone] | – | 0.0% | 0.0% | 3% | 16.0% | −6.0% | 40% | 6.0% | −1.5% | 15% | 32.0% | −9.0% | 78% | – |
